In ChEMBL document CHEMBL3885881, “DrugMatrix”:

Organism: Rattus norvegicus
Assay: DrugMatrix - Regimen: Daily Repeat
Type: toxicity, organism-based, Sprague-Dawley
Design: regimen Daily Repeat, gender Male, age 6-8 weeks
Details: in vivo, po, route oral GAVAGE, vehicle .5 % CMC; for ABSOLUTE BASOPHIL / ABSOLUTE EOSINOPHIL / ABSOLUTE LYMPHOCYTE / ABSOLUTE MONOCYTE / ABSOLUTE SEGMENTED NEUTROPHIL / BASOPHIL / EOSINOPHIL / ERYTHROCYTE COUNT / HEMATOCRIT / HEMOGLOBIN / LEUKOCYTE COUNT / LYMPHOCYTE / MEAN CORPUSCULAR HEMOGLOBIN / MEAN CORPUSCULAR HEMOGLOBIN CONCENTRATION / MEAN CORPUSCULAR VOLUME / MONOCYTE / NEUTROPHIL / NUCLEATED RED BLOOD CELLS / PLATELET COUNT: tissue Blood; for ALANINE AMINOTRANSFERASE / ALBUMIN / ALKALINE PHOSPHATASE / ASPARTATE AMINOTRANSFERASE / BLOOD UREA NITROGEN / CARBON DIOXIDE / CHLORIDE / CHOLESTEROL / CREATINE PHOSPHOKINASE / CREATININE / GLUCOSE / LACTATE DEHYDROGENASE / LIPASE / PHOSPHORUS / POTASSIUM / SODIUM / TOTAL BILIRUBIN / TOTAL PROTEIN / URIC ACID: tissue Plasma
[1] = 0 mg/kg, 72 h, dose level Control, time 3 day
[2] = 0 mg/kg, 120 h, dose level Control, time 5 day
[3] = 200 mg/kg, 72 h, dose level Low, time 3 day

Structure (SMILES): CCC1=C(C)CN(C(=O)NCCc2ccc(S(=O)(=O)NC(=O)N[C@H]3CC[C@H](C)CC3)cc2)C1=O [GLIMEPIRIDE]
- ABSOLUTE BASOPHIL [1]: 0 CELLS/uL
- ABSOLUTE EOSINOPHIL [1]: 0 CELLS/uL
- ABSOLUTE LYMPHOCYTE [1]: 12191.17 CELLS/uL
- ABSOLUTE MONOCYTE [1]: 183.17 CELLS/uL
- ABSOLUTE SEGMENTED NEUTROPHIL [1]: 1192.33 CELLS/uL
- BASOPHIL [1]: 0%
- EOSINOPHIL [1]: 0%
- ERYTHROCYTE COUNT [1]: 5.51 x10E6/uL
- HEMATOCRIT [1]: 35.45%
- HEMOGLOBIN [1]: 13.82 G/DL
- LEUKOCYTE COUNT [1]: 13.57 x10E3/uL
- LYMPHOCYTE [1]: 89.83%
- MEAN CORPUSCULAR HEMOGLOBIN [1]: 25.1 pg
- MEAN CORPUSCULAR HEMOGLOBIN CONCENTRATION [1]: 38.98 G/DL
- MEAN CORPUSCULAR VOLUME [1]: 64.42 fL
- MONOCYTE [1]: 1.33%
- NEUTROPHIL [1]: 8.83%
- NUCLEATED RED BLOOD CELLS [1]: 0 /100WBC
- PLATELET COUNT [1]: 1118.17 x10E3/uL
- ALANINE AMINOTRANSFERASE [1]: 55 u/L
- ALBUMIN [1]: 4.15 G/DL
- ALKALINE PHOSPHATASE [1]: 449.5 u/L
- ASPARTATE AMINOTRANSFERASE [1]: 112.83 u/L
- BLOOD UREA NITROGEN [1]: 17.33 mg/dL
- CARBON DIOXIDE [1]: 29.5 mmol/L
- CHLORIDE [1]: 101 MEQ/L
- CHOLESTEROL [1]: 70 mg/dL
- CREATINE PHOSPHOKINASE [1]: 1325.83 u/L
- CREATININE [1]: 0.18 mg/dL
- GLUCOSE [1]: 171.5 mg/dL
- LACTATE DEHYDROGENASE [1]: 386 u/L
- LIPASE [1]: 10 u/L
- PHOSPHORUS [1]: 11.57 mg/dL
- POTASSIUM [1]: 6.21 MEQ/L
- SODIUM [1]: 141.65 MEQ/L
- TOTAL BILIRUBIN [1]: 0.15 mg/dL
- TOTAL PROTEIN [1]: 5.75 G/DL
- URIC ACID [1]: 1.28 mg/dL
- ABSOLUTE BASOPHIL [2]: 0 CELLS/uL
- ABSOLUTE EOSINOPHIL [2]: 138.17 CELLS/uL
- ABSOLUTE LYMPHOCYTE [2]: 13283.17 CELLS/uL
- ABSOLUTE MONOCYTE [2]: 303.83 CELLS/uL
- ABSOLUTE SEGMENTED NEUTROPHIL [2]: 1308.17 CELLS/uL
- BASOPHIL [2]: 0%
- EOSINOPHIL [2]: 1%
- ERYTHROCYTE COUNT [2]: 5.32 x10E6/uL
- HEMATOCRIT [2]: 33.8%
- HEMOGLOBIN [2]: 13.63 G/DL
- LEUKOCYTE COUNT [2]: 15.03 x10E3/uL
- LYMPHOCYTE [2]: 88.33%
- MEAN CORPUSCULAR HEMOGLOBIN [2]: 25.68 pg
- MEAN CORPUSCULAR HEMOGLOBIN CONCENTRATION [2]: 40.35 G/DL
- MEAN CORPUSCULAR VOLUME [2]: 63.67 fL
- MONOCYTE [2]: 1.83%
- NEUTROPHIL [2]: 8.83%
- NUCLEATED RED BLOOD CELLS [2]: 0 /100WBC
- PLATELET COUNT [2]: 1097.5 x10E3/uL
- ALANINE AMINOTRANSFERASE [2]: 54.5 u/L
- ALBUMIN [2]: 4.27 G/DL
- ALKALINE PHOSPHATASE [2]: 337 u/L
- ASPARTATE AMINOTRANSFERASE [2]: 94.67 u/L
- BLOOD UREA NITROGEN [2]: 17 mg/dL
- CARBON DIOXIDE [2]: 28.33 mmol/L
- CHLORIDE [2]: 101.5 MEQ/L
- CHOLESTEROL [2]: 71.33 mg/dL
- CREATINE PHOSPHOKINASE [2]: 628.17 u/L
- CREATININE [2]: 0.19 mg/dL
- GLUCOSE [2]: 177.83 mg/dL
- LACTATE DEHYDROGENASE [2]: 500.5 u/L
- LIPASE [2]: 9.5 u/L
- PHOSPHORUS [2]: 12.3 mg/dL
- POTASSIUM [2]: 5.63 MEQ/L
- SODIUM [2]: 143.03 MEQ/L
- TOTAL BILIRUBIN [2]: 0.2 mg/dL
- TOTAL PROTEIN [2]: 6.02 G/DL
- URIC ACID [2]: 1.5 mg/dL
- ABSOLUTE BASOPHIL [3]: 0 CELLS/uL
- ABSOLUTE EOSINOPHIL [3]: 128.33 CELLS/uL
- ABSOLUTE LYMPHOCYTE [3]: 12992 CELLS/uL
- ABSOLUTE MONOCYTE [3]: 35 CELLS/uL
- ABSOLUTE SEGMENTED NEUTROPHIL [3]: 1711.33 CELLS/uL
- BASOPHIL [3]: 0%
- EOSINOPHIL [3]: 1%
- ERYTHROCYTE COUNT [3]: 5.2 x10E6/uL
- HEMATOCRIT [3]: 33.43%
- HEMOGLOBIN [3]: 13.5 G/DL
- LEUKOCYTE COUNT [3]: 14.87 x10E3/uL
- LYMPHOCYTE [3]: 87%
- MEAN CORPUSCULAR HEMOGLOBIN [3]: 26.03 pg
- MEAN CORPUSCULAR HEMOGLOBIN CONCENTRATION [3]: 40.4 G/DL
- MEAN CORPUSCULAR VOLUME [3]: 64.33 fL
- MONOCYTE [3]: 0.33%
- NEUTROPHIL [3]: 11.67%
- NUCLEATED RED BLOOD CELLS [3]: 0 /100WBC
- PLATELET COUNT [3]: 1286.33 x10E3/uL
- ALANINE AMINOTRANSFERASE [3]: 61.67 u/L
- ALBUMIN [3]: 4.23 G/DL
- ALKALINE PHOSPHATASE [3]: 355.67 u/L
- ASPARTATE AMINOTRANSFERASE [3]: 97.67 u/L
- BLOOD UREA NITROGEN [3]: 16.33 mg/dL
- CARBON DIOXIDE [3]: 24 mmol/L
- CHLORIDE [3]: 103.67 MEQ/L
- CHOLESTEROL [3]: 81.33 mg/dL
- CREATINE PHOSPHOKINASE [3]: 1168 u/L
- CREATININE [3]: 0.16 mg/dL
- GLUCOSE [3]: 150.33 mg/dL
- LACTATE DEHYDROGENASE [3]: 169.33 u/L
- LIPASE [3]: 10 u/L
- PHOSPHORUS [3]: 12.27 mg/dL
- POTASSIUM [3]: 5.69 MEQ/L
- SODIUM [3]: 144.2 MEQ/L
- TOTAL BILIRUBIN [3]: 0.13 mg/dL
- TOTAL PROTEIN [3]: 5.83 G/DL
- URIC ACID [3]: 1.53 mg/dL
